Measurements reported in patent publication EP0237866A1, “Selective fungicidal use of asymmetric 2-pyridyl phosphoric acid esters” (priority 1986, dated 1987).

What was measured:
Venturia inaequalis = test: Venturia test (apple) / protective; type: in vivo; conditions: apple plants, protective spray, 5 ppm active compound, evaluated 12 days after inoculation
Text: Venturia-Test (Apfel) / protektiv
Lösungsmittel: 4,7 Gewichtsteile Aceton Emulgator: 0,3 Gewichtsteile Alkylarylpolyglykolether
(§1) Zur Herstellung einer zweckmäßigen Wirkstoffzubereitung vermischt man 1 Gewichtsteil Wirkstoff mit den angegebenen Mengen Lösungsmittel und Emulgator und verdünnt das Konzentrat mit Wasser auf die gewünschte Konzentration.
Zur Prüfung auf protektive Wirksamkeit bespritzt man junge Pflanzen mit der Wirkstoffzubereitung bis zur Tropfnässe. Nach Antrocknen des Spritzbelages werden die Pflanzen mit einer wäßrigen Konidiensuspension des Apfelschorferregers (Venturia inaequalis) inokuliert und verbleiben dann 1 Tag bei 20°C und 100 X relativer Luftfeuchtigkeit in einer Inkubationskabine.
Die Pflanzen werden dann im Gewächshaus bei 20 °C und einer relativen Luftfeuchtigkeit von ca. 70 % aufgestellt.
12 Tage nach der Inokulation erfolgt die Auswertung.

[1] = test system: Erysiphe graminis f.sp.hordei; test: Erysiphe test (barley) / protective; type: in vivo; conditions: evaluated 7 days after inoculation
Text: Erysiphe-Test (Gerste) / protektiv
Lösungsmittel: 100 Gewichtsteile Dimethylformamid Emulgator: 0,25 Gewichtsteile Alkylarylpolyglykolether
as §1
Zur Prüfung auf protektive Wirksamkeit besprüht man junge Pflanzen mit der Wirkstoffzubereitung taufeucht. Nach Antrocknen des Spritzbelages werden die Pflanzen mit Sporen von Erysiphe graminis f.sp.hordei bestäubt.
Die Pflanzen werden in einem Gewächshaus bei einer Temperatur von ca. 20°C und einer relativen Luftfeuchtigkeit von ca. 80 % aufgestellt, um die Entwicklung von Mehltaupusteln zu begünstigen.
7 Tage nach der Inokulation erfolgt die Auswertung.

Cutinase = molecular target: T1, Cutinase (Fusarium vanettenii, UniProt P00590); test: Cutinase inhibitor test; type: biochemical, Fusarium solani f.sp.pisi; conditions: p-Nitrophenylbutyrat as substrate, 30 min incubation at 30°C, phosphate buffer 0,1 M pH 8 + 0,3% Triton X-100; read-out: I50
T1 construct: Das Enzym Cutinase wird aus Kulturfiltrat von Fusarium solani f.sp.pisi nach Standardmethoden gereinigt; endogenous in cells; host or cells: Culture filtrate of Fusarium solani f.sp. pisi (enzyme secreted by the fungus and purified)
T1 sequence (P00590 32-230): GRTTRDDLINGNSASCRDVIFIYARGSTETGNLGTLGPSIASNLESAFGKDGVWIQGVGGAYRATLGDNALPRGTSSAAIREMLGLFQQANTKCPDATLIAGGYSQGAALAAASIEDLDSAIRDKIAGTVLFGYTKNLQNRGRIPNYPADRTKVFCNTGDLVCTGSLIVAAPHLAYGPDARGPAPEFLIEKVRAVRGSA
Experimental: Das Enzym Cutinase wird aus Kulturfiltrat von Fusarium solani f.sp.pisi nach Standardmethoden gereinigt und photometrisch mit p-Nitrophenylbutyrat als Substrat getestet (P.E. Kolattukudy, K.E. Espelie, C.L. Soliday (1981), Meth. Enzymol. 71, 652).
Die Inhibitor-Wirkung wird einer beschriebenen Methode folgend bestimmt (W. Köller, C.R. Allan, P.E. Kolattukudy (1982), Phytopathoiopy 72, 1425): Eine geeignete Menge Enzym wird zusammen mit dem Wirkstoff in gewünschter Konzentration in 1 ml Phosphatpuffer (0,1 M; pH 8) + 0,3% (w/v) Triton X-100 bei 30°C inkubiert. Nach 30 Minuten Inkubation wird die enzymatische Restaktivität bestimmt. Anhand einer Dosis-Wirkungs-Beziehung wird der I(50)-Wert (= diejenige Wirkstoff-Konzentration, die zu einer Inhibierung von 50 % führt) ermittelt.

[2] = protective spray, 0,0025 Gew.-% in the spray liquor

| SMILES | Befall in % bei einer Wirkstoffkonzentration von 5 ppm (Venturia inaequalis) [%] | Krankheits-befall in % der unbe-handelten Kontrolle [1, 2] | further results |
| --- | --- | --- | --- |
| CCOP(=O)(OCC)Oc1nc(Cl)c(Cl)cc1Cl [A, 0,0-Diethyl-0-(3,5,6-trichlor-2-pyridyl)-phosphorsäureester, reference compound] | 74 |  | Krankheits-befall in % der unbe-handelten Kontrolle ([1]; protective spray, 0,005 Gew.-% in the spray liquor): 58,7 % der unbe-handelten Kontrolle; IC50 (Cutinase): 0.19 µM |
| CCCCOP(=O)(OCC)Oc1nc(Cl)c(Cl)cc1Cl (centres unmarked) [Beispiel 1, O-n-Butyl-O-ethyl-O-(3,5,6-trichlor-2-pyridyl)-phosphorsiureester] | 27 |  |  |
| CCCCCCOP(=O)(OCC)Oc1nc(Cl)c(Cl)cc1Cl (centres unmarked) [Beispiel 2] | 11 |  |  |
| CCCCCCCCOP(=O)(OCC)Oc1nc(Cl)c(Cl)cc1Cl (centres unmarked) [Beispiel 3] | 19 |  |  |
| CCCCOP(=O)(OC)Oc1nc(Cl)c(Cl)cc1Cl (centres unmarked) [Beispiel 4] | 5 |  | IC50 (Cutinase): 0.036 µM |
| CCCCCCOP(=O)(OC)Oc1nc(Cl)c(Cl)cc1Cl (centres unmarked) [Beispiel 5] | 3 |  |  |
| CCCCCCOP(=O)(OC)Oc1cccc(Cl)n1 (centres unmarked) [Beispiel 7] |  | 37,5 % der unbe-handelten Kontrolle |  |
| CCCCOP(=O)(OC)Oc1cccc(Cl)n1 (centres unmarked) [Beispiel 8] |  | 37,5 % der unbe-handelten Kontrolle |  |
| CCCCCCOP(=O)(OC)Oc1ncc(Cl)cc1Cl (centres unmarked) [Beispiel 9] |  | 25,0 % der unbe-handelten Kontrolle |  |
| CCCCOP(=O)(OC)Oc1ncc(Cl)cc1Cl (centres unmarked) [Beispiel 10] |  | 12,5 % der unbe-handelten Kontrolle |  |
| CCCOP(=O)(OC)Oc1nc(Cl)c(Cl)cc1Cl (centres unmarked) [Beispiel 12] |  |  | IC50 (Cutinase): 0.039 µM |
